{
  "source": "patent US8680076B2",
  "about": "“Methods of treatment, improvement and prevention using haloaryl substituted aminopurines” (Signal Pharmaceuticals, LLC, priority 2010, dated 2014)",
  "assay_type_in_all_cases": "in vivo",
  "key": {"Tsk-1 mice": {"test_system": "Tsk-1 mice", "assay": "Tight skin-1 (Tsk-1) mouse model of systemic sclerosis", "conditions": "50 mg/kg/day IP, 6 weeks", "method": "The antifibrotic effects of the JNK inhibitor Compound JNKi-1 were tested in a murine tight skin-1 (Tsk-1) model of systemic sclerosis. In this model, a dominant mutation in the fibrillin 1 gene (Fbn1^Tsk+/−) leads to a systemic sclerosis-like disease with inflammatory infiltrates and massive fibrosis of the skin (Akhmetshina A, Venalis P, Dees C, Busch N, Zwerina J, Schett G, et al., Treatment with imatinib prevents fibrosis in different preclinical models of systemic sclerosis and induces regression of established fibrosis, Arthritis Rheum. 2009; 60(1):219-24).\nMale and female TSK-1 mice were used. Mice were fed a standard diet with water ad libitum. The room temperature was kept constant at 22° C. with a humidity of 60%.\nCompound JNKi-1 was dissolved in 0.5% carboxymethylcellulose (CMC)/0.25% Tween 80 in water. As vehicle control a solution of 0.5% CMC/0.25% Tween 80 in water was used. Imatinib mesylate was dissolved in 0.9% NaCl at a concentration of 50 mg/kg/day in a total volume of 100 μL.\nGroups of Tsk-1 mice (n=4/sex/group) were assigned to one of five treatment groups: • Untreated wildtype (Fbn1^Tsk−/−) group received 0.5% CMC/0.25% Tween 80 in water orally (PO) twice daily (BID). • Untreated Fbn1Tsk+/− mice received 0.5% CMC/0.25% Tween 80 in water orally BID. • Compound JNKi-1-treated Fbn1^Tsk+/− received 50 mg/kg orally BID. • Compound JNKi-1-treated Fbn1^Tsk+/− received 150 mg/kg orally BID. • Imatinib mesylate-treated Fbn1^Tsk+/− group received 50 mg/kg/day administered intraperitoneally (IP).\nTreatments with Compound JNKi-1 and control compound were started at Week 4. After 6 weeks of treatment, mice were sacrificed, and the antifibrotic effects from each treatment were analyzed.\nAntifibrotic effects were determined by measuring the dermal thickness and quantifying the numbers of myofibroblasts in the lesional skin. Dermal thickness was determined by measuring the distance from the epidermal/dermal border to the dermal/subdermal border in H & E-stained sections at four different sites. The number of myofibroblasts was quantified by staining for alpha smooth muscle actin (α-SMA) in paraffin-embedded sections. Data are expressed as mean±standard error of the mean (SEM). SPSS17.0 software and the Mann-Whitney-U-test were used for statistical analyses. A p-value of less than 0.05 was considered statistically significant."}, "CD-IGS rats": {"test_system": "CD-IGS rats", "assay": "Rat model of excisional wound healing", "conditions": "0.5 mg/kg qd orally", "method": "Male CD-IGS rats (Strain code 001; n=32-52 per experiment) were obtained from Charles River Laboratories at a body weight of 175-195 g. Rats were housed in regular shoebox cages and allowed to become acclimated for a minimum of 1 week. Rats were fed Harlan Teklad (No. 7001) 4% mouse/rat diet and water ad libitum and were maintained on a 12-hour light/dark cycle.\nSuspensions of Compound JNKi-1 were prepared in aqueous 0.5% CMC and 0.25% Tween-80. The formulations were homogenized using a TEFLON® pestle and mortar (Potter-Elvehjem tissue grinder). Vehicle (aqueous solution of 0.5% carboxymethylcellulose, and 0.25% Tween-80) and test article compounds were dosed at a volume of 5 mL/kg. Groups of rats (n=4-8/group) were dosed orally with vehicle, Dexamethasone (0.5 mg/kg) or Compound JNKi-1 (10 mg/kg, 30 mg/kg or 60 mg/kg) daily throughout the study starting 4 days prior to the procedure and continuing for up to […]. Compound JNKi-1 treated groups and the respective vehicle control group were dosed twice daily (bid) with an 8 hr separation between the doses. Dexamethasone treated animals and the respective vehicle control group were dosed once daily (qd) for the duration of the study.\nRats were anesthetized by inhaled isoflurane and the dorsal area was shaved and swabbed with 70% alcohol. Two points were marked 5.5 and 8.5 cm from the base of the skull along the midline. Four further points were marked 1 cm at either side of the midline, two at each of the marked points. These delineated the centers of four excisional wounds. The biopsy punch (6 mm diameter) was aligned vertically over the center of a mark and the epidermis, dermis and panniculus carnosus pierced by applying pressure and twisting at the same time. The skin plug was then removed. This was repeated for the remaining wounds (FIG. 15). The animal was then allowed to recover. All animals were housed singly during the experiment. Rats were monitored twice a day for the first 24 hours following the procedure and then daily until the end of the study. Body weights were recorded two or three times per week. Animals were sacrificed via CO2 asphyxiation at various time-points (day 1, 5, 10 or 14) following wounding.\nEach wound size was measured using an electronic digital caliper and the percent of wound remaining open was calculated relative to the initial wound size recorded on day 0 (day of wounding procedure). Four values were averaged for each animal (four wounds on each rat). Measurements were taken at different time-points throughout the study.\nWounds and 2 mm of surrounding tissue were excised using an 8 mm biopsy punch. Wounds were harvested on days 1, 5, 10 and 14 following the procedure. Tissues were fixed in neutral buffered formalin for 3 h then transferred to 100% ethanol. Tissues were paraffin-embedded and four μm cross sections were cut and mounted on poly-lysine slides and stored in slide boxes at room temperature.\nOne slide for each specimen was stained for H&E to assess granulation-tissue formation and re-epithelialization of the wound gap.\nSamples collected on day 10 and 14 were stained with Trichrome Stain (Masson) Kit (Sigma, HT15) to evaluate collagen deposition and remodeling.\nTissue sections were deparaffinized and hydrated to deionized (DI) water. Sections were incubated in preheated Bouin' Solution (Sigma, HT10-132) at 56° C. overnight and then thoroughly rinsed in tap water. Sections were stained in Weigert's Iron Hematoxylin solution (Sigma, HT10-79) for 15 min, washed, and counterstained with Biebrich Scarlet Acid Fuchsin solution. After washing, sections were incubated with Phosphotungstic-Phosphomolybdic acid solution for 15 min and then stained with Aniline Blue solution. Sections were dehydrated and cleared in xylene.\nWound healing was evaluated on day 10 and day 14 after the procedure. H&E sections were scored for re-epithelialization using the following criteria: […]"}, "[1]": {"test_system": "DBA/2J mice, bleomycin-induced skin fibrosis", "assay": "Bleomycin-induced dermal fibrosis mouse model (preventive treatment)", "conditions": "50 mg/kg/day IP, mean±SEM", "method": "The selective JNK inhibitor Compound JNKi-1 was tested in a bleomycin-induced dermal fibrosis mouse model, which is considered to represent the early and inflammatory stages of systemic sclerosis (Akhmetshina A, Venalis P, Dees C, Busch N, Zwerina J, Schett G, Distler O, Distler J H, Treatment with imatinib prevents fibrosis in different preclinical models of systemic sclerosis and induces regression of established fibrosis, Arthritis Rheum. 2009; 60(1):219-24). […] In animal models it will similarly induce injury and fibrosis at the site of delivery.\nMale and female DBA/2J mice were used. Mice were fed a standard diet with water ad libitum. The room temperature was kept constant at 22° C. with a humidity of 60%.\nCompound JNKi-1 was dissolved in 0.5% carboxymethylcellulose (CMC)/0.25% Tween 80 in water. Bleomycin was dissolved in 0.9% sodium chloride (NaCl) at a concentration of 0.5 mg/mL in a total volume of 100 μL. The positive control compound Imatinib mesylate was dissolved in 0.9% NaCl at a concentration of 50 mg/kg/day in a total volume of 100 μL.\nTwo different dose levels of the JNK-inhibitor Compound JNKi-1 (50 mg/kg and 150 mg/kg, administered twice daily) were used to analyze the anti-fibrotic activity in a mouse model of bleomycin-induced skin fibrosis. […] DBA/2J mice (n=5/sex/group) were assigned to one of five treatment groups: • Control group: 0.5% CMC/0.25% Tween 80 in water orally (PO) twice daily (BID) and subcutaneous injections of 100 μL 0.9% NaCl. • Untreated bleomycin group: intradermal injection of bleomycin and 0.5% CMC/0.25% Tween 80 in water orally BID. • 50 mg/kg Compound JNKi-1: intradermal injection of bleomycin and Compound JNKi-1 orally BID. • 150 mg/kg Compound JNKi-1: intradermal injection of bleomycin and Compound JNKi-1 orally BID. • Positive control group: intradermal injection of bleomycin and imatinib 50 mg/kg/day administered intraperitoneally (IP).\nLocalized dermal fibrosis was induced by injection of bleomycin every other day for 3 weeks in defined areas of the upper back. Compound JNKi-1 or imatinib was administrated starting from the first dose of bleomycin.\nThe dermal thickness was determined by staining with hematoxylin and eosin (H & E). The activated fibroblasts (myofibroblasts) at the fibrotic lesions were quantified by immunohistochemistry (IHC) for alpha smooth muscle actin (α-SMA). Collagen concentration in lesional skin was analyzed by hydroxyproline assay. Data are expressed as mean±standard error of the mean (SEM). SPSS17.0 software and the Mann-Whitney-U-test were used for statistical analyses. A p-value of less than 0.05 was considered statistically significant."}},
  "note": "Counter-ions that a name gives are not always drawn.",
  "data": [
    {"smiles": "Cc1ccc(NC(=O)c2ccc(CN3CCN(C)CC3)cc2)cc1Nc1nccc(-c2cccnc2)n1", "note": "[imatinib mesylate, reference compound]", "values": [
      {"measurement": "decrease of number of myofibroblasts", "setting": "Tsk-1 mice", "value": "99%±15%"},
      {"measurement": "decrease of hypodermal thickness", "setting": "Tsk-1 mice; compared to untreated mice", "value": "71%±7%"}
    ]},
    {"smiles": "C[C@@H]1C[C@H]2[C@@H]3CCC4=CC(=O)C=C[C@]4(C)[C@@]3(F)[C@@H](O)C[C@]2(C)[C@@]1(O)C(=O)CO", "note": "[Dexamethasone, reference compound]", "values": [
      {"measurement": "loss of initial body weight mass", "setting": "CD-IGS rats", "value": "about 10%"},
      {"measurement": "wound gap remaining open at day 10 post wounding", "setting": "CD-IGS rats", "value": "approximately 70%"}
    ]},
    {"smiles": "Cc1ccc(NC(=O)c2ccc(CN3CCN(C)CC3)cc2)cc1Nc1nccc(-c2cccnc2)n1", "note": "[imatinib, reference compound]", "values": [
      {"measurement": "reduction in dermal thickening", "setting": "[1]; 3 weeks bleomycin", "value": "46%±5%"},
      {"measurement": "decrease of myofibroblast count", "setting": "[1]", "value": "51%±10%"}
    ]}
  ]
}
